Records with an inconclusive call do not appear.
Tested on: nude mice, HT29 intrarenal xenograft, tumor weight T/C
Test: NCI In Vivo Anticancer Drug Screen. Data for tumor model HT29;CX-1 Human Adenocarcinoma (MER+) (intrarenal inoculation) in NU/NU Swiss (nude) mice
Settings: endpoint: mean tumor weight change, higher = larger tumour
Procedure: The antitumor activity of compounds was measured in mice bearing transplantable tumors. Survival or tumor size were measured and the results are expressed as the measurement made in the treated group (T) divided by the measurement made in the vehicle treated control group (C). The tumor model used in this assay is HT29;CX-1 Human Adenocarcinoma (MER+) (intrarenal inoculation) in NU/NU Swiss (nude) mice

[1] = dose: 75.0 mg/kg/injection, schedule: Q04DX004 (sc), vehicle: Klucel (hydroxypropylcellulose) (HPC)
[2] = dose: 50.0 mg/kg/injection, schedule: Q04DX004 (sc), vehicle: Klucel (hydroxypropylcellulose) (HPC)
[3] = dose: 200.0 mg/kg/injection, schedule: Q04DX004 (sc), vehicle: Klucel (hydroxypropylcellulose) (HPC)
[4] = dose: 50.0 mg/kg/injection, schedule: Q01DX010 (sc), vehicle: saline with Tween-80
[5] = dose: 25.0 mg/kg/injection, schedule: Q04DX004 (sc), vehicle: Klucel (hydroxypropylcellulose) (HPC)
[6] = dose: 100.0 mg/kg/injection, schedule: Q01DX010 (sc), vehicle: saline with Tween-80

O=c1cnn(C2OC(CO)C(O)C2O)c(=O)[nH]1 (stereo not drawn)
T/C (dose: 200.0 mg/kg/injection, schedule: Q01DX010 (sc), vehicle: saline): 71 % of control
T/C (dose: 400.0 mg/kg/injection, schedule: Q01DX010 (sc), vehicle: saline): 100 % of control
T/C (dose: 800.0 mg/kg/injection, schedule: Q01DX010 (sc), vehicle: saline): 97 % of control
T/C (dose: 1600.0 mg/kg/injection, schedule: Q01DX010 (sc), vehicle: saline): 34 % of control

COc1cc(NS(C)(=O)=O)ccc1Nc1c2ccccc2nc2ccccc12
T/C (dose: 0.38 mg/kg/injection, schedule: Q01DX010 (sc), vehicle: other): 33 % of control
T/C (dose: 0.75 mg/kg/injection, schedule: Q01DX010 (sc), vehicle: lactic acid): 43 % of control
T/C (dose: 0.75 mg/kg/injection, schedule: Q01DX010 (sc), vehicle: other): 15 % of control
T/C (dose: 0.78 mg/kg/injection, schedule: Q01DX010 (sc), vehicle: lactic acid): 15 % of control
T/C (dose: 1.5 mg/kg/injection, schedule: Q01DX010 (sc), vehicle: lactic acid): 30 % of control
T/C (dose: 1.5 mg/kg/injection, schedule: Q01DX010 (sc), vehicle: other): 39 % of control
T/C (dose: 3.0 mg/kg/injection, schedule: Q01DX010 (sc), vehicle: other): 99 % of control

Cc1c(N)nc([C@H](CC(N)=O)NC[C@H](N)C(N)=O)nc1C(=O)N[C@H](C(=O)N[C@H](C)[C@@H](O)CC(=O)N[C@H](C(=O)NC(O[C@@H]1O[C@@H](C)[C@@H](N)[C@@H](O)[C@H]1O)C(O)c1nc(-c2nc(C(=O)NCCCCN)cs2)cs1)[C@@H](C)O)[C@@H](O[C@@H]1O[C@@H](CO)[C@@H](O)[C@H](O)[C@@H]1O[C@H]1O[C@H](CO)[C@@H](O)[C@H](OC(N)=O)[C@@H]1O)c1c[nH]cn1 (stereo partly drawn)
T/C (dose: 4.0 mg/kg/injection, schedule: Q04DX004 (sc), vehicle: saline): 104 % of control
T/C (dose: 8.0 mg/kg/injection, schedule: Q04DX004 (sc), vehicle: saline): 68 % of control
T/C (dose: 16.0 mg/kg/injection, schedule: Q04DX004 (sc), vehicle: saline): 73 % of control
T/C (dose: 32.0 mg/kg/injection, schedule: Q04DX004 (sc), vehicle: saline): 28 % of control

Cc1cc(=O)n2c3c(c4c(cc13)c(CN(C)C)cc(=O)n4C)OC2
T/C (dose: 75.0 mg/kg/injection, schedule: Q04DX004 (sc), vehicle: saline with Tween-80): 117 % of control
T/C (dose: 150.0 mg/kg/injection, schedule: Q04DX004 (sc), vehicle: saline with Tween-80): 57 % of control

O=S(=O)(O)O
T/C [1]: 86 % of control
T/C (dose: 150.0 mg/kg/injection, schedule: Q04DX004 (sc), vehicle: Klucel (hydroxypropylcellulose) (HPC)): 116 % of control
T/C (dose: 300.0 mg/kg/injection, schedule: Q04DX004 (sc), vehicle: Klucel (hydroxypropylcellulose) (HPC)): 65 % of control

CC(=O)NC(CCc1ccc(Cl)c(Cl)c1)c1cccc(O)c(=O)c1 (stereo not drawn)
T/C [2]: 107 % of control
T/C (dose: 100.0 mg/kg/injection, schedule: Q04DX004 (sc), vehicle: Klucel (hydroxypropylcellulose) (HPC)): 124 % of control
T/C [3]: 154 % of control

CC1=C(/C=C/C(C)=C/C=C/C(C)=C/C(=O)O)C(C)(C)CCC1
T/C (dose: 12.5 mg/kg/injection, schedule: Q01DX010 (sc), vehicle: saline with Tween-80): 153 % of control
T/C (dose: 25.0 mg/kg/injection, schedule: Q01DX010 (sc), vehicle: saline with Tween-80): 176 % of control
T/C [4]: 123 % of control

CC1=NNC(=O)C1CCO (stereo not drawn)
T/C [3]: 66 % of control
T/C (dose: 400.0 mg/kg/injection, schedule: Q04DX004 (sc), vehicle: Klucel (hydroxypropylcellulose) (HPC)): 44 % of control
T/C (dose: 800.0 mg/kg/injection, schedule: Q04DX004 (sc), vehicle: Klucel (hydroxypropylcellulose) (HPC)): 99 % of control
T/C (dose: 1600.0 mg/kg/injection, schedule: Q04DX004 (sc), vehicle: Klucel (hydroxypropylcellulose) (HPC)): 63 % of control

CCC12C[N+]3([O-])CCc4c([nH]c5ccccc45)C(C(=O)OC)(c4cc5c(cc4OC)N(C)C4C(O)(C(=O)OC)C(OC(C)=O)C6(CC)C=CCN7CCC54C76)CC(C3)C1O2 (stereo not drawn)
T/C (dose: 20.0 mg/kg/injection, schedule: Q04DX004 (sc), vehicle: water): 81 % of control
T/C (dose: 40.0 mg/kg/injection, schedule: Q04DX004 (sc), vehicle: water): 60 % of control
T/C (dose: 80.0 mg/kg/injection, schedule: Q04DX004 (sc), vehicle: water): 85 % of control
T/C (dose: 160.0 mg/kg/injection, schedule: Q04DX004 (sc), vehicle: water): 71 % of control

NC(=O)c1ncn(C2OC(CO)C(O)C2O)n1 (stereo not drawn)
T/C (dose: 225.0 mg/kg/injection, schedule: Q04DX004 (sc), vehicle: saline): 93 % of control
T/C (dose: 450.0 mg/kg/injection, schedule: Q04DX004 (sc), vehicle: saline): 75 % of control
T/C (dose: 900.0 mg/kg/injection, schedule: Q04DX004 (sc), vehicle: saline): 61 % of control

CC[C@](C)(O)C(=O)O[C@H]1C(=O)O[C@@H]2C[C@H]3C(C)=CC(=O)[C@@H](O)[C@]3(C)[C@H]3[C@@]4(O)OC[C@]32[C@@H]1[C@@H](C)[C@H]4O
T/C (dose: 0.25 mg/kg/injection, schedule: Q01DX010 (sc), vehicle: Klucel (hydroxypropylcellulose) (HPC)): 55 % of control
T/C (dose: 0.5 mg/kg/injection, schedule: Q01DX010 (sc), vehicle: Klucel (hydroxypropylcellulose) (HPC)): 80 % of control
T/C (dose: 1.0 mg/kg/injection, schedule: Q01DX010 (sc), vehicle: Klucel (hydroxypropylcellulose) (HPC)): 61 % of control
T/C (dose: 2.0 mg/kg/injection, schedule: Q01DX010 (sc), vehicle: Klucel (hydroxypropylcellulose) (HPC)): 73 % of control

O=NN(CCF)C(=O)NC1CCCCC1
T/C (dose: 6.25 mg/kg/injection, schedule: Q04DX004 (sc), vehicle: Klucel (hydroxypropylcellulose) (HPC)): 55 % of control
T/C (dose: 12.5 mg/kg/injection, schedule: Q04DX004 (sc), vehicle: Klucel (hydroxypropylcellulose) (HPC)): 30 % of control
T/C [5]: 62 % of control

CC(C)[C@]12O[C@H]1[C@@H]1O[C@]13[C@]1(O[C@H]1C[C@H]1C4=C(C(=O)OC4)[C@@H](O)C[C@@]13C)[C@@H]2O
T/C (dose: 0.1 mg/kg/injection, schedule: Q01DX010 (sc), vehicle: saline + alcohol): 63 % of control
T/C (dose: 0.2 mg/kg/injection, schedule: Q01DX010 (sc), vehicle: saline + alcohol): 77 % of control

O=Cc1ccc(O)c(O)c1
T/C (dose: 300.0 mg/kg/injection, schedule: Q04DX004 (sc), vehicle: saline with Tween-80): 86 % of control
T/C (dose: 600.0 mg/kg/injection, schedule: Q04DX004 (sc), vehicle: saline with Tween-80): 58 % of control
T/C (dose: 1200.0 mg/kg/injection, schedule: Q04DX004 (sc), vehicle: saline with Tween-80): 100 % of control

CC(=O)Nc1ccc(S(=O)(=O)CO)cc1
T/C (dose: 225.0 mg/kg/injection, schedule: Q04DX004 (sc), vehicle: saline with Tween-80): 73 % of control
T/C (dose: 450.0 mg/kg/injection, schedule: Q04DX004 (sc), vehicle: saline with Tween-80): 57 % of control

CN(C)c1ccc2c(N(C)C)cc(N(C)C)nc2c1
T/C [1]: 97 % of control

COC(=O)Nc1ccc(Cc2ccc(NC(=O)OC)cc2)cc1
T/C [6]: 26 % of control
T/C (dose: 200.0 mg/kg/injection, schedule: Q01DX010 (sc), vehicle: saline with Tween-80): 100 % of control
T/C (dose: 400.0 mg/kg/injection, schedule: Q01DX010 (sc), vehicle: saline with Tween-80): 152 % of control
T/C (dose: 800.0 mg/kg/injection, schedule: Q01DX010 (sc), vehicle: saline with Tween-80): 58 % of control

Cc1c2cc[n+](C)cc2c(C)c2c1[nH]c1ccc(O)cc12
T/C (dose: 1.25 mg/kg/injection, schedule: Q04DX004 (sc), vehicle: water): 360 % of control
T/C (dose: 2.5 mg/kg/injection, schedule: Q04DX004 (sc), vehicle: water): 120 % of control

OC(CBr)C(O)C(O)C(O)CBr (stereo not drawn)
T/C (dose: 15.0 mg/kg/injection, schedule: Q01DX010 (sc), vehicle: Klucel (hydroxypropylcellulose) (HPC)): 82 % of control
T/C (dose: 30.0 mg/kg/injection, schedule: Q01DX010 (sc), vehicle: Klucel (hydroxypropylcellulose) (HPC)): 44 % of control
T/C (dose: 120.0 mg/kg/injection, schedule: Q01DX010 (sc), vehicle: Klucel (hydroxypropylcellulose) (HPC)): 43 % of control
T/C (dose: 200.0 mg/kg/injection, schedule: Q01DX010 (sc), vehicle: Klucel (hydroxypropylcellulose) (HPC)): 101 % of control
T/C (dose: 400.0 mg/kg/injection, schedule: Q01DX010 (sc), vehicle: Klucel (hydroxypropylcellulose) (HPC)): 59 % of control

O=C(Nc1ccc(N=C=S)cc1Cl)c1cc(Cl)cc(Cl)c1O
T/C [5]: 123 % of control
T/C [2]: 102 % of control
T/C [3]: 56 % of control

O=c1nc(Oc2ccccc2)nc2ncccn12
T/C [4]: 312 % of control
T/C [6]: 156 % of control
